According to patent US10183015B2, “Heterocyclic compounds and methods of use” (Medivation Technologies LLC, priority 2015, dated 2019):
Several values for one entry are separate records, joined by “and”; a condition that tells them apart may be missing. Equal values may be shown once.

Tests used:
[1] = system: SREBP1C; test: Short-term Paigen-diet NASH mouse model: hepatic SREBP1C gene expression (RT-qPCR); format: in vivo; conditions: liver, 21 days; for DDct: SREBP1C Dct relative to vehicle mean; for Dct: SREBP1C minus 18S; for 2DDct: SREBP1C relative expression to vehicle group, normalized to 18S; for SREBP1C: raw RT-qPCR value
Protocol: To investigate whether Compound #37 prevents the development of pathology associated with NASH and steatosis in an acute exploratory disease model, a study was conducted using a diet-induced acute liver steatosis model in mice. As described below, in this study, C57BL/6J mice were initiated on the Paigen diet and simultaneously treated with Compound #37 (5, 20, and 40 mg/kg/day) or vehicle control (20% HPβCD 10 mL/kg/day) by oral gavage for 21 days.
After acclimation, 8-week old male C57Bl/6J mice (Charles River) weighing about 25 g were randomized in 4 groups according their body weight and treated once daily around noon by oral gavage with vehicle, or Compound #37 at various for 21 days as follows: Group 1: vehicle-20% (2-hydroxypropyl)-β-cyclodextrin (HP-β-CD) (n=10); Group 2: Compound #37, 5 mg/kg (n=10) Group 3: Compound #37, 20 mg/kg (n=10) Group 4: Compound #37, 40 mg/kg (n=10). During the treatment period, body weight and food intake (measured over 24h) were measured 3 times per week and once a week, respectively. During the acclimation, all mice were fed a standard diet (Special Diets Services RM1 (E), product no. 801492) and tap water ad libitum. After the acclimation period, mice were fed until the end of the experiment with a 60% high fat Paigen diet (60 kcal % fat, 1.25% cholesterol, and 0.5% cholate; D11061901, Research Diet) and tap water ad libitum.
(§1) Gene expression analysis. Hepatic expression levels of genes involved in lipid metabolism (FAS, SREBP1, ACC1, SCD1), cholesterol metabolism (HMG-CoAR, LDLR), SREBP proteolysis (SCAP, INSIG1), ER stress (PERK), oxidative stress (NRF2), inflammation (MCP-1), and fibrosis (collagen 1α1) were quantified by RTqPCR. Expression level was normalized to 18S gene expression and relative expression to vehicle group was calculated with the […] method.

[2] = system: diet-induced NASH obese insulin resistant mice; test: DIN mouse model: plasma lipid levels; format: in vivo; conditions: 20 mg/kg, end of treatment
Protocol: (§2) Male C57Bl/6J mice (8 weeks old) were housed in enriched ventilated cages (31×12.5×12.7 cm) throughout the experimental phase. Animals' cages litters were changed at least once a week. Animal were housed 5 per cage on inverted 12-hour light cycle (at 09:00 am lights off), 22±2° C. and 55±10% relative humidity. The acclimation period was 20 days. During the acclimation period, all mice were fed a standard diet (RM1 (E) 801492, SDS) and tap water ad libitum. After the acclimation period, mice were fed with the DIN diet (60% fat, cholesterol enriched) and fructose-enriched tap water ad libitum until the end of the experiment.
(§3) At 6 weeks of diet, mice were 4-hour fasted (09:00 am to 1:00 pm) and blood (150 μl/EDTA) was collected at 01:00 pm by retro-orbital bleeding under isoflurane anesthesia. Mice were then allocated in 2 homogenous groups (n=12/group) according to their plasma levels of ALT (average levels: 685U/L), AST (average levels: 627U/L) and HOMA-IR index (average value: 4.7), into 2 homogenous groups (see values at day 0 in Tables 15A and 15B ALT/AST and Tables 16A and 16B for HOMA-IR). Mice were then treated once daily by oral gavage with vehicle (Group 1) or Compound #37 at 20 mg/kg (Group 2) for 70 days.
To investigate whether Compound #37 improves pre-existing steatosis/NASH pathology, a study was conducted using a 16-week diet-induced NASH mouse model. In this model, mice develop steatosis that progresses with inflammation and fibrosis that mimic many of the observed pathologies in human nonalcoholic fatty liver disease (NAFLD) and NASH (Hebbard & George, 2010). For 6 weeks, mice were fed a high-fat, high-cholesterol diet and provided drinking water containing fructose to induce liver pathology (Charlton et al, 2011). After 6 weeks, the mice were divided into 2 groups with similar mean aspartate aminotransferase (AST) and alanine aminotransferase (ALT) values (n=12 mice), although it should be noted that AST and ALT concentrations within both groups were higher and with greater variability than anticipated (e.g., mean ALT 677 U/L [SD, 401 U/L] in the vehicle control group and 693 U/L [SD, 365 U/L] in the Compound #37 group). After the animals were divided into 2 groups, the diet was continued for 10 additional weeks during which time 1 group received vehicle and the other was treated with 20 mg/kg/day Compound #37.

[3] = system: SREBP; test: SREBP-responsive promoter luciferase reporter assay in HepG2_LSSprom cells; format: cell-based; conditions: 6 hours of treatment, medium without serum; read-out: IC50 for luciferase expression
Protocol: HepG2_LSSprom cells were cultured in DMEM with 10% fetal bovine serum and 1% penicillin/streptomycin for 24 hours. Cells were then treated with increasing concentrations of Compound #37 or an equal volume of DMSO in culture medium without serum. Luciferase expression was measured and compared after 6 hours of treatment.

[4] = system: INSIG1; test: DIN mouse model: hepatic INSIG1 gene expression; format: in vivo; parameters: key to 2^DDct: expression relative to vehicle group, normalized to 18S; conditions: for 2^DDct / DDct / Dct / INSIG1: Gene Expression: INSIG1, 20 mg/kg group; for 18S: Gene Expression: INSIG1 table, 18S reference, 20 mg/kg group
Protocol: as §1, §2, §3
Hepatic expression levels of genes involved in lipid (FAS, SREBP1, ACC1, SCD1), cholesterol metabolism (HMG-CoAR, LDLR), in SREBP proteolysis (SCAP, INSIG1), in ER stress (PERK), oxidative stress (NRF2), and inflammation (MCP-1) were not changed. However, expression of collagen 1α1, involved in liver fibrosis, was reduced by 66% in mice treated with Compound #37 (p<0.05 vs. vehicle).

[5] = Compound #37 5 mg/kg, group mean, n=10
[6] = Compound #37 5 mg/kg, individual animals, 5 mg/kg
[7] = Compound #37 20 mg/kg, group mean, n=6
[8] = Compound #37 20 mg/kg, individual animals, 20 mg/kg

## CC(C)Cc1cc(-c2nc(-c3ccc(NS(=O)(=O)C(F)(F)F)cc3Cl)cs2)ccn1 [Compound 37, N-(3-chloro-4-(2-(2-isobutylpyridin-4-yl)thiazol-4-yl)phenyl)-1,1,1-trifluoromethanesulfonamide]
[1]; [5]
  DDct: 0.26
  Dct: 14
  2DDct: 0.95
  SREBP1C: 26.3
[1]; [6]
  DDct: −0.21 and 0.9 and 0.06 and −0.98 and 1.46 and 1.52 and −0.09 and −0.27 and 0.17 and 0.02
  Dct: 13.57 and 14.68 and 13.84 and 12.8 and 15.24 and 15.3 and 13.69 and 13.51 and 13.95 and 13.8
  2DDct: 1.16 and 0.54 and 0.96 and 1.98 and 0.36 and 0.35 and 1.07 and 1.21 and 0.89 and 0.99
  SREBP1C: 27.03 and 27.79 and 25.45 and 26.15 and 27.27 and 28.65 and 25.29 and 25.3 and 25.09 and 24.92
[1]; [7]
  DDct: −0.13
  Dct: 13.6
  2DDct: 1.29
  SREBP1C: 25.8
[1]; [8]
  DDct: 0.5 and 0.38 and 0.11 and −1.36 and 0.66 and −1.08
  Dct: 14.28 and 14.16 and 13.89 and 12.42 and 14.44 and 12.7
  2DDct: 0.71 and 0.77 and 0.93 and 2.57 and 0.63 and 2.12
  SREBP1C: 27.19 and 26.45 and 26.09 and 25.45 and 25.93 and 23.96
[2]; p<0.05 vs. vehicle
  HDL-cholesterol increase: 31%
[2]; group mean, n 11
  plasma HDL cholesterol: 1.42 g/L
  plasma cholesterol: 1.82 g/L
  plasma free fatty acids: 0.59 mM
  plasma triglycerides: 0.40 g/L
[2]; individual animals
  plasma HDL cholesterol: 1.65 g/L and 1.68 g/L and 1.10 g/L and 1.47 g/L (2×) and 1.90 g/L and 1.12 g/L and 1.43 g/L and 0.62 g/L and 1.62 g/L and 1.56 g/L
  plasma cholesterol: 2.49 g/L and 2.36 g/L and 1.95 g/L and 1.67 g/L and 2.12 g/L and 1.38 g/L and 1.62 g/L and 1.15 g/L and 1.57 g/L and 1.86 g/L and 1.90 g/L
  plasma free fatty acids: 0.73 mM and 0.63 mM and 0.59 mM (3×) and 0.29 mM and 0.65 mM and 0.56 mM and 0.71 mM and 0.44 mM and 0.67 mM
  plasma triglycerides: 0.37 g/L (2×) and 0.3 g/L and 0.42 g/L and 0.35 g/L and 0.40 g/L and 0.34 g/L and 0.45 g/L and 0.50 g/L and 0.47 g/L and 0.39 g/L
[3]
  IC50: 2700 nM
[4]; individual animal
  2^DDct: 2.07 and 2.24 and 0.78 (2×) and 1.54 and 1.51 and 1.65 and 1.45 and 1.43 and 0.46 and 2.84
  DDct: −1.05 and −1.17 and 0.36 (2×) and −0.63 and −0.60 and −0.73 and −0.54 and −0.52 and 1.13 and −1.51
  Dct: 9.85 and 9.73 and 11.26 (2×) and 10.27 and 10.3 and 10.17 and 10.36 and 10.38 and 12.03 and 9.39
  INSIG1: 22.4 and 22.28 and 24.1 and 22.7 and 22.65 and 22.76 (2×) and 22.09 and 22.89 and 23.58 and 21.74
[4]; mean, n 11
  2^DDct: 1.52
  DDct: −0.44
  Dct: 10.5
  INSIG1: 22.7
  18S: 12.3
[4]; individual animal, 20 mg/kg
  18S: 12.55 (2×) and 12.84 and 12.43 and 12.35 (2×) and 12.59 and 11.73 and 12.51 and 11.5 and 11.55
